Laboratory results from patent US8906865B2, “Treatment of inflammation and/or endotoxic shock” (ISIS Innovation Limited, priority 2007, dated 2014).

System: C57B16/J mice, zymosan-induced peritonitis
Assay: Zymosan-induced peritonitis in mice
Type: in vivo, mouse
Parameters: Reduction of MCP-1 in peritoneal lavage fluid (FIG. 7F) / Reduction of KC in peritoneal lavage fluid (FIG. 7F) / Reduction of TNFα in peritoneal lavage fluid (FIG. 7F) / Reduction of IL-1β in peritoneal lavage fluid (FIG. 7F) / Reduction of IL-6 in peritoneal lavage fluid (FIG. 7F): concentration or dose not given beside the values
Details: for Protection in vivo as judged by monocyte and neutrophil levels (FIG. 7C-D): same dose and time as C15
Description: FIGS. 7A and 7B—C57B16/J mice were dosed i.p with PBS or chemerin15 (0.32 ng/kg) followed by injection with PBS or zymosan (10 μg, ˜2×10^6 particles per cavity) 1 h later. Peritoneal exudate cells were harvested by peritoneal lavage at multiple time points (FIGS. 7A and 7B; 5-6 mice/treatment) or after 4 h (FIGS. 7C-7E; 6-15 mice/group). FIGS. 7C-7E—total cell numbers in lavage fluid were quantified and cellular composition (neutrophils vs mononuclear phagocytes) determined using FACS analysis. Cells were blocked with 2.4G2 anti-FcγRII/III and stained with Ly-6G-PE and 7/4-FITC. Gates were constructed around two populations, the neutrophils (N; 7/4high, Ly-6Ghigh) and inflammatory monocytes (Mo; 7/4high, Ly-6Glow). FIG. 7E—representative FACS plots are shown for each treatment group at 4 h post-zymosan. FIG. 7F—peritoneal lavage fluid was assayed for TNFα and KC by ELISA and IL-6, IL-1β and MCP-1 by Luminex assay. C15; Chemerin15, Z; Zymosan. ***, P<0.001; **, P<0.01 ** relative to zymosan-treated animals (Student's t test). FIG. 7G—Mice (6-8/treatment) were dosed i.p with zymosan (10 μg) and with C15 (8 pg) or PBS either 1 h beforehand (C15 pre-treatment) or 2 h later (C15 post-treatment). Peritoneal lavage was carried out 4 h post-zymosan challenge. Reference in this figure to the peptide C15 refers to the peptide described previously as C15m;
More specifically, male C57B16/J mice (8-12 weeks) were injected intra-peritoneally with 0.5 ml PBS or 0.5 ml Chemerin15-mouse (0.32 ng/kg) followed by injection with 0.5 ml PBS or Zymosan (2×10^6 particles per cavity) an hour later. After 4 hours animals were sacrificed and peritoneal cavities washed with 5 ml PBS-3 mM EDTA. Total cell counts were obtained using Trypan blue exclusion test. For determination of cellular composition (Neutrophils vs mononuclear phagocytes), cells were blocked with 2.4G2 mAB for 5 mins and stained with PE-conjugated anti-mouse Ly-6G and FITC-conjugated anti-mouse 7/4 mAB for 10 mins. Cells were fixed in 1% formaldehyde prior to FACS analysis with CellQuest software. Gates were constructed around two populations, the neutrophils (N; 7/4^high, Ly-6G^high) and inflammatory monocytes (Mo; 7/4^high). C15 refers to Chemerin15-mouse. Z refers to Zymosan. p<0.01 **; p<0.05 * relative to Zymosan-treated.
Neutrophil (7/4^high, Ly-6G^high), monocyte (7/4^high, Ly-6G^low) and resident macrophage populations (7/4^low, Ly-6G^low) were determined according to Gordon S and Taylor P R Nat Rev Immunol. 2005; 5(12):953; Taylor P R et al. Eur J Immunol. August 2003; 33(8):2090-2097; and Taylor P R et al. Eur J Immunol. July 2005; 35(7):2163-2174.
The above result was further investigated. To determine the anti-inflammatory properties of the C15 peptide in vivo a time-course experiment was performed extending over 48 h. Neutrophil (7/4high, Ly-6Ghigh) and monocyte (7/4high, Ly-6Glow) populations in peritoneal lavage fluid were determined by FACS analysis according to published protocols (Taylor, P. R. et al., (2005). Eur J Immunol 35:2163-2174; Taylor, P. R., (2003). Eur J Immunol 33:2090-2097). Administration of zymosan into the mouse peritoneal cavity produced a time-dependent extravasation of inflammatory cells into the peritoneal cavity, which followed the typical profile of an acute inflammatory response (FIG. 7A-B, solid line). Neutrophils were the first leukocytes to infiltrate the cavity, detectable at 2 h post-zymosan with peak neutrophilia occurring at 4 h (1.95×10^6 cells). Monocyte influx into the inflamed peritoneal cavity was first detectable after 4 h (0.69×10^6 cells), peaking at 24 h post-zymosan injection (1.25×10^6 cells) and declining thereafter. Pre-treatment with C15 at a dose of 8 pg/mouse (≈0.32 ng/kg) 1 h prior to zymosan challenge brought the peak neutrophilia forward to 2 h with approximately 50% the magnitude of that of zymosan challenged mice (reduced from 1.25×10^6 to 0.62×10^6 cells; FIG. 7A, dotted line). […]

[1] = 8 pg/mouse 1 h before zymosan, 4 h post-zymosan
[2] = 0.32 ng/kg (8 pg/mouse) i.p. 1 h before zymosan, 4 h
[3] = C15 2 h post-zymosan, lavage 4 h post-zymosan

“AGEDPHGYALPGQAA (Mutant C15) [C15-M, control peptide, mutant C15 (F148A & F153A), reference compound]” was tested. Which “Protection in vivo as judged by monocyte and neutrophil levels (FIG. 7C-D)” value did it give?
The value was “not be protective”.

Which results are given for “AGEDPHGYFLPGQFA (listed as Mus sp.) [C15]”?
Suppression of neutrophil infiltration (FIG. 7A) (8 pg/mouse 1 h before zymosan, 2 h post-zymosan): 50%; Suppression of neutrophil infiltration (FIG. 7A) [1]: 66%; Suppression of peritoneal monocytes (FIG. 7B) [1]: 63%; Suppression of peritoneal monocytes (FIG. 7B) (8 pg/mouse 1 h before zymosan, 8 h post-zymosan): 61%; Suppression of neutrophil infiltration (FIG. 7A) (8 pg/mouse 1 h before zymosan, 24 h post-zymosan): 50%; Suppression of peritoneal monocytes (FIG. 7B) (8 pg/mouse 1 h before zymosan, 48 h post-zymosan): 64%; Peritoneal neutrophils at 2 h (peak neutrophilia under C15) (8 pg/mouse 1 h before zymosan, zymosan alone 1.25×10^6): 0.62×10^6 cells; Time of peak neutrophilia (8 pg/mouse 1 h before zymosan, zymosan alone 4 h): 2 h; Reduction of Zymosan-elicited monocyte recruitment (FIG. 6) [2]: 42%; Reduction of Zymosan-elicited neutrophil recruitment (FIG. 6) [2]: 52%; Levels of TNFα in zymosan-treated mice (FIG. 6) (0.32 ng/kg i.p. 1 h before zymosan): reduced; Rate of monocyte influx into the inflamed cavity (2-4 h post-zymosan, zymosan alone 0.51×10^6/h): 180000 h⁻¹; Reduction of IL-1β in peritoneal lavage fluid (FIG. 7F) (4 h post-zymosan): 67%; Reduction of IL-6 in peritoneal lavage fluid (FIG. 7F) (4 h post-zymosan): 67%; Reduction of KC in peritoneal lavage fluid (FIG. 7F) (4 h post-zymosan): 38%; Reduction of MCP-1 in peritoneal lavage fluid (FIG. 7F) (4 h post-zymosan): 59%; Reduction of TNFα in peritoneal lavage fluid (FIG. 7F) (4 h post-zymosan): 51%; Decrease in monocyte levels (FIG. 7D) (C15 1 h prior to zymosan, 4 h): 62%; Decrease in neutrophil numbers (FIG. 7C) (C15 1 h prior to zymosan, 4 h): 63%; Monocyte levels (FIG. 7D) (C15 1 h prior to zymosan, 4 h, zymosan alone 0.69×10^6): 0.30×10^6; Neutrophil numbers (FIG. 7C) (C15 1 h prior to zymosan, 4 h, zymosan alone 1.9×10^6): 0.78×10^6; Decrease in monocyte recruitment, C15 post-treatment (FIG. 7G) [3]: 42%; Decrease in neutrophil recruitment, C15 post-treatment (FIG. 7G) [3]: 60%; Monocyte number, C15 post-treatment (FIG. 7G) (C15 2 h post-zymosan, lavage 4 h post-zymosan, zymosan alone 0.69×10^6): 0.42×10^6 cells; Neutrophil number, C15 post-treatment (FIG. 7G) (C15 2 h post-zymosan, lavage 4 h post-zymosan, zymosan alone 1.9×10^6): 0.83×10^6 cells; Dose with efficacy against sterile peritonitis in mice (mouse, in vivo): 0.00032 µg/kg; Dose giving maximal reduction in zymosan-elicited neutrophil and monocyte recruitment (single i.p. dose, 4 h post-zymosan): 8 pg/mouse

For “GLFHDQAGPPAGYEF (Scrambled C15) [C15-S, control peptide, scrambled C15, reference compound]”, which “Protection in vivo as judged by monocyte and neutrophil levels (FIG. 7C-D)” value is on record?
The value was “not be protective”.
